Assay results reported in patent US11046699B2, “Pyrazolo-pyrimidin-amino-cycloalkyl compounds and their therapeutic uses” (RAPT THERAPEUTICS, INC., priority 2018, dated 2021).
pIC50: −log10 of the molar value.

Each molecule was assayed against GCN2 (Homo sapiens, UniProt Q9P2K8) (assay: GCN2 enzymatic endpoint assay: phosphorylation of GFP-eIF2α measured by TR-FRET (Lanthascreen)). Details: GCN2 biochemical IC50; 4 nM GCN2, 2 μM ATP, 80 nM GFP-eIF2α, 90 min RT; read-out: GCN2 activity.
Type: biochemical
Summary of the method: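 Phosphorylated eIF2α read by Lanthascreen TR-FRET (acceptor 520 nm over donor 495 nm) after EDTA stop. The reaction ran 90 min at room temperature on 80 nM GFP-eIF2α with 2 μM ATP.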

GCN2, sequence (Q9P2K8 whole entry): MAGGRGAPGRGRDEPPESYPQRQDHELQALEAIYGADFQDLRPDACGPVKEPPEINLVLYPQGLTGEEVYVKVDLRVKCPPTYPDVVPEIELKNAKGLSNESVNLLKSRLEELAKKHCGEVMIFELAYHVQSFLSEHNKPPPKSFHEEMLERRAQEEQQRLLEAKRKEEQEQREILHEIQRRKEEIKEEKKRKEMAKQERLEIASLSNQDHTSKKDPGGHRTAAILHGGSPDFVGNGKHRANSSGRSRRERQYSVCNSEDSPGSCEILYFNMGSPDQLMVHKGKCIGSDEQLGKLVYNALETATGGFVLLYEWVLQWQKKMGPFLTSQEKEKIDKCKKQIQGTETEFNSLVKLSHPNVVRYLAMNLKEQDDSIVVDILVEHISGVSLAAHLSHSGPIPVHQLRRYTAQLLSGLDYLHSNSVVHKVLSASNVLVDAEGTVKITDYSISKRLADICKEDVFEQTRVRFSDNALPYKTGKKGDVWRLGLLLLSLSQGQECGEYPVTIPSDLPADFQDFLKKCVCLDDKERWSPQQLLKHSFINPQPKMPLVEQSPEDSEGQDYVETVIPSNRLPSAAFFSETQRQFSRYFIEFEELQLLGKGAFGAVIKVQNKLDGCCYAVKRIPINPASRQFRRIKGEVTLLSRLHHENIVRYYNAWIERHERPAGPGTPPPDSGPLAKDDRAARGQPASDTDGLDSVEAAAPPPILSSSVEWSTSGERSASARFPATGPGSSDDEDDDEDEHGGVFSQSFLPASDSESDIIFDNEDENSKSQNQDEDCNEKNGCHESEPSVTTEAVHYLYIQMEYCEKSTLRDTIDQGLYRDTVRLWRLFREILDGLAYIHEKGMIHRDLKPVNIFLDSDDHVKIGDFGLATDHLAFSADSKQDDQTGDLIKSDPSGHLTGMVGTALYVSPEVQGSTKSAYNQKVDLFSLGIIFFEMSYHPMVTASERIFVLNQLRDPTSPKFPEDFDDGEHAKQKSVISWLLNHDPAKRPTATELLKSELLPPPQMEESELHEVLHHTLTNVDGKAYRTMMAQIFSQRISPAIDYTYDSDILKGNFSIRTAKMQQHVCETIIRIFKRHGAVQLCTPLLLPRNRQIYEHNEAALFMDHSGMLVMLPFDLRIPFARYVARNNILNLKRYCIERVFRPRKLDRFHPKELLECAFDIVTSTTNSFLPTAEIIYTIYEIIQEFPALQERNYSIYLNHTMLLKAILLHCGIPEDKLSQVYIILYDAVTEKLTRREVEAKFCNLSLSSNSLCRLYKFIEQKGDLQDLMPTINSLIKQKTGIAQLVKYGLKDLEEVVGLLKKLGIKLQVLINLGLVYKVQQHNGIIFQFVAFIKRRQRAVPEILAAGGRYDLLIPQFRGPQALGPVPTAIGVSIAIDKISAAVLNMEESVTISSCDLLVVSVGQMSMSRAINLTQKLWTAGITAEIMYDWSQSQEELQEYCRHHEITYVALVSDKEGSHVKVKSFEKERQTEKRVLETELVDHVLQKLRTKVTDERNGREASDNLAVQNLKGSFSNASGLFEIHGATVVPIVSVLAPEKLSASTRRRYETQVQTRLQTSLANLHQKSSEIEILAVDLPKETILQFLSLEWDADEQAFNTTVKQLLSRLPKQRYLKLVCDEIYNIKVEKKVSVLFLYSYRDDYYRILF

| Structure (SMILES) | pIC50 |
| --- | --- |
| CNC(=O)[C@]1(C)CC[C@@H](Nc2ncc3c(Br)nn(-c4cc([C@@H](C)N)c5nccnc5c4)c3n2)C1 [Example 34, (1R,3R)-3-((1-(8-((R)-1-aminoethyl)quinoxalin-6-yl)-3-bromo-1H-pyrazolo[3,4-d]pyrimidin-6-yl)amino)-N,1-dimethylcyclopentane-1-carboxamide; 2,2,2-trifluoroacetic acid] | > 7.60 |
| CNC(=O)[C@]1(C)CC[C@@H](Nc2ncc3c(Br)nn(-c4ccc(Cl)c([C@H](C)N)c4)c3n2)C1 [Example 65, (1R,3R)-3-((1-(3-((S)-1-aminoethyl)-4-chlorophenyl)-3-bromo-1H-pyrazolo[3,4-d]pyrimidin-6-yl)amino)-N,1-dimethylcyclopentane-1-carboxamide] | > 7.60 |

Same assay, conditions: tested as described in Example 77; compound and/or hydrochloride, dihydrochloride or trifluoroacetic acid salt; read-out: IC 50 Activity

| Structure (SMILES) | pIC50 |
| --- | --- |
| CNC(=O)[C@]1(C)CC[C@@H](Nc2ncc3c(Br)nn(-c4ccc(-c5ncco5)c(CO)c4)c3n2)C1 [(1R,3R)-3-[[3-bromo-1-[3-(hydroxymethyl)-4-oxazol-2-yl-phenyl]pyrazolo[3,4-d]pyrimidin-6-yl]amino]-N,1-dimethyl-cyclopentanecarboxamide] | 6.70 to 7.60 |
| COCCNC(=O)[C@@H]1CC[C@@H](Nc2ncc3c(Br)nn(-c4ccc5ncc(F)cc5c4)c3n2)C1 [(1R,3R)-3-((3-bromo-1-(3-fluoroquinolin-6-yl)-1H-pyrazolo[3,4-d]pyrimidin-6-yl)amino)-N-(2-methoxyethyl)cyclopentane-1-carboxamide] | 6.70 to 7.60 |
| CNC(=O)[C@]1(C)CC[C@@H](Nc2ncc3c(Br)nn(-c4ccc5c(c4)CN(S(=O)(=O)CC(F)F)C5)c3n2)C1 [(1R,3R)-3-[[3-bromo-1-[2-(2,2-difluoroethylsulfonyl)isoindolin-5-yl]pyrazolo[3,4-d]pyrimidin-6-yl]amino]-N,1-dimethyl-cyclopentanecarboxamide] | 6.70 to 7.60 |
| O=C(NCCc1cnc[nH]1)[C@@H]1CC[C@@H](Nc2ncc3c(Br)nn(-c4cc(F)c5ncccc5c4)c3n2)C1 [(1R,3R)-N-(2-(1H-imidazol-5-yl)ethyl)-3-((3-bromo-1-(8-fluoroquinolin-6-yl)-1H-pyrazolo [3,4-d]pyrimidin-6-yl)amino)cyclopentane-1-carboxamide] | 6.70 to 7.60 |
| O=S(=O)(NC1CCOCC1)[C@@H]1CC[C@@H](Nc2ncc3c(Br)nn(-c4ccc5ncccc5c4)c3n2)C1 [(1R,3R)-3-((3-bromo-1-(quinolin-6-yl)-1H-pyrazolo[3,4-d]pyrimidin-6-yl)amino)-N-(tetrahydro-2H-pyran-4-yl)cyclopentane-1-sulfonamide] | 6.30 to 6.70 |
| O=C(NC[C@H]1COCCN1)[C@@H]1CC[C@@H](Nc2ncc3c(Br)nn(-c4cc(F)c5ncccc5c4)c3n2)C1 | 6.70 to 7.60 |
| CNC(=O)[C@]1(C)CC[C@@H](Nc2ncc3c(Br)nn(-c4cc(Cl)cc([C@H]5COC(=O)N5)c4)c3n2)C1 [(1R,3R)-3-[[3-bromo-1-[3-chloro-5-[(4S)-2-oxooxazolidin-4-yl]phenyl]pyrazolo[3,4-d]pyrimidin-6-yl]amino]-N,1-dimethyl-cyclopentanecarboxamide] | 6.70 to 7.60 |
| CNC(=O)[C@]1(C)CC[C@@H](Nc2ncc3c(Br)nn(-c4cc([C@H](C)CO)c5ncccc5c4)c3n2)C1 [(1R,3R)-3-[[3-bromo-1-[8-[(1S)-2-hydroxy-1-methyl-ethyl]-6-quinolyl]pyrazolo[3,4-d]pyrimidin-6-yl]amino]-N,1-dimethyl-cyclopentanecarboxamide] | > 7.60 |
| COC(C)(C)CN(C)C(=O)[C@]1(C)CC[C@@H](Nc2ncc3c(Br)nn(-c4cc(F)c5ncccc5c4)c3n2)C1 [(1R,3R)-3-[[3-bromo-1-(8-fluoro-6-quinolyl)pyrazolo[3,4-d]pyrimidin-6-yl]amino]-N-(2-methoxy-2-methyl-propyl)-N,1-dimethyl-cyclopentanecarboxamide] | > 7.60 |
| CNS(=O)(=O)C1CC[C@@H](Nc2ncc3c(Br)nn(-c4cc(Cl)cc([C@H](C)N)c4)c3n2)C1 (stereo partly shown) | 6.70 to 7.60 |
| CNC(=O)[C@]1(C)CC[C@@H](Nc2ncc3c(Br)nn(-c4ccc(-c5nnc(C)s5)c(CC(C#N)CO)c4)c3n2)C1 (stereo partly drawn) [(1R,3R)-3-[[3-bromo-1-[3-(2-cyano-3-hydroxy-propyl)-4-(5-methyl-1,3,4-thiadiazol-2-yl)phenyl]pyrazolo[3,4-d]pyrimidin-6-yl]amino]-N,1-dimethyl-cyclopentanecarboxamide] | > 7.60 |
| CC1(CNC(=O)[C@@H]2CC[C@@H](Nc3ncc4c(Br)nn(-c5ccc6ncccc6c5)c4n3)C2)COC1 [(1R,3R)-3-((3-bromo-1-(quinolin-6-yl)-1H-pyrazolo[3,4-d]pyrimidin-6-yl)amino)-N-((3-methyloxetan-3-yl)methyl)cyclopentane-1-carboxamide] | 6.30 to 6.70 |
| CNC(=O)[C@]1(C)CC[C@@H](Nc2ncc3c(Br)nn(-c4cc(Cl)cc(CCNS(C)(=O)=O)c4)c3n2)C1 | 6.70 to 7.60 |
| Cc1nnc(-c2ccc(-n3nc(Br)c4cnc(N[C@@H]5CC[C@](C)(O)C5)nc43)cc2CCC#N)s1 [3-[5-[3-bromo-6-[[(1R,3S)-3-hydroxy-3-methyl-cyclopentyl]amino]pyrazolo [3,4-d]pyrimidin-1-yl]-2-(5-methyl-1,3,4-thiadiazol-2-yl)phenyl]propanenitrile] | 6.70 to 7.60 |
| N#CC1CN(C(=O)[C@@H]2CC[C@@H](Nc3ncc4c(Br)nn(-c5cc(F)c6ncccc6c5)c4n3)C2)C1 [1-[(1R,3R)-3-[[3-bromo-1-(8-fluoro-6-quinolyl)pyrazolo[3,4-d]pyrimidin-6-yl]amino]cyclopentanecarbonyl]azetidine-3-carbonitrile] | > 7.60 |
| CNC(=O)[C@]1(C)CC[C@@H](Nc2ncc3c(Br)nn(-c4ccc(-c5nnc(C(C)(C)N)o5)c(F)c4)c3n2)C1 [(1R,3R)-3-[[1-[4-[5-(1-amino-1-methyl-ethyl)-1,3,4-oxadiazol-2-yl]-3-fluoro-phenyl]-3-bromo-pyrazolo[3,4-d]pyrimidin-6-yl]amino]-N,1-dimethyl-cyclopentanecarboxamide] | 6.70 to 7.60 |
| COCCNC(=O)[C@@H]1CC[C@@H](Nc2ncc3c(Br)nn(-c4ccc5cccnc5c4)c3n2)C1 [(1R,3R)-3-((3-bromo-1-(quinolin-7-yl)-1H-pyrazolo[3,4-d]pyrimidin-6-yl)amino)-N-(2-methoxyethyl)cyclopentane-1-carboxamide] | 6.30 to 6.70 |
| CNC(=O)[C@]1(C)CC[C@@H](Nc2ncc3c(Br)nn(-c4ccc(-c5cncs5)cc4)c3n2)C1 [(1R,3R)-3-[[3-bromo-1-(4-thiazol-5-ylphenyl)pyrazolo[3,4-d]pyrimidin-6-yl]amino]-N,1-dimethyl-cyclopentane-carboxamide] | 6.70 to 7.60 |
| CNC(=O)[C@]1(C)CC[C@@H](Nc2ncc3c(Br)nn(-c4ccc5c(c4)OCC(=O)N5)c3n2)C1 [(1R,3R)-3-[[3-bromo-1-(3-oxo-4H-1,4-benzoxazin-7-yl)pyrazolo[3,4-d]pyrimidin-6-yl]amino]-N,1-dimethyl-cyclopentanecarboxamide] | 6.70 to 7.60 |
| CNC(=O)[C@]1(C)CC[C@@H](Nc2ncc3c(Br)nn(-c4cncc(C#N)c4)c3n2)C1 [(1R,3R)-3-[[3-bromo-1-(5-cyano-3-pyridyl)pyrazolo[3,4-d]pyrimidin-6-yl]amino]-N,1-dimethyl-cyclopentane-carboxamide] | 6.70 to 7.60 |
| CNC(=O)[C@@H]1CC[C@@H](Nc2ncc3c(Br)nn(-c4ccc(-c5nnn[nH]5)cc4)c3n2)C1 [(1R,3R)-3-((1-(4-(1H-tetrazol-5-yl)phenyl)-3-bromo-1H-pyrazolo[3,4-d]pyrimidin-6-yl)amino)-N-methylcyclopentane-1-carboxamide] | 6.70 to 7.60 |
| CNC(=O)[C@]1(C)CC[C@@H](Nc2ncc3c(Br)nn(-c4cc(CCC(=O)O)c5ncccc5c4)c3n2)C1 [3-[6-[3-bromo-6-[[(1R,3R)-3-methyl-3-(methylcarbamoyl)cyclopentyl]amino]pyrazolo[3,4-d]pyrimidin-1-yl]-8-quinolyl]propanoic acid] | > 7.60 |
| O=C(NC[C@H]1COCCN1)[C@@H]1CC[C@@H](Nc2ncc3c(Br)nn(-c4ccc5ncccc5c4)c3n2)C1 [(1R,3R)-3-((3-bromo-1-(quinolin-6-yl)-1H-pyrazolo[3,4-d]pyrimidin-6-yl)amino)-N-(((S)-morpholin-3-yl)methyl)cyclopentane-1-carboxamide] | 6.70 to 7.60 |
| N#Cc1cc(-n2nc(Br)c3cnc(N[C@@H]4CC[C@@H](C(=O)N5CCN(C(=O)C6CC6)CC5)C4)nc32)cc2cccnc12 [6-(3-bromo-6-(((1R,3R)-3-(4-(cyclopropanecarbonyl)piperazine-1-carbonyl)cyclopentyl)amino)-1H-pyrazolo [3,4-d]pyrimidin-1-yl)quinoline-8-carbonitrile] | 6.70 to 7.60 |
| CCN(C)C(=O)[C@]1(C)CC[C@@H](Nc2ncc3c(Br)nn(-c4cc(F)c5ncccc5c4)c3n2)C1 [(1R,3R)-3-[[3-bromo-1-(8-fluoro-6-quinolyl)pyrazolo[3,4-d]pyrimidin-6-yl]amino]-N-ethyl-N,1-dimethyl-cyclopentanecarboxamide] | > 7.60 |
| Cc1nnc(-c2ccc(-n3nc(Br)c4cnc(N[C@@H]5CC[C@@](C)(N)C5)nc43)cc2)s1 | 6.70 to 7.60 |
| CNC(=O)[C@]1(C)CC[C@@H](Nc2ncc3c(Br)nn(-c4ccc5ncnn5c4)c3n2)C1 [(1R,3R)-3-[[3-bromo-1-([1,2,4]triazolo[1,5-a]pyridin-6-yl)pyrazolo[3,4-d]pyrimidin-6-yl]amino]-N,1-dimethyl-cyclopentane-carboxamide] | 6.70 to 7.60 |
| CNC(=O)[C@]1(C)CC[C@@H](Nc2ncc3c(Br)nn(-c4ccc(-c5nnc(C(=O)NCCN(C)C)s5)cc4)c3n2)C1 [5-[4-[3-bromo-6-[[(1R,3R)-3-methyl-3-(methylcarbamoyl)cyclopentyl]amino]pyrazolo[3,4-d]pyrimidin-1-yl]phenyl]-N-[2-(dimethylamino)ethyl]-1,3,4-thiadiazole-2-carboxamide] | 6.70 to 7.60 |
| O=C(O)C1CN(C(=O)[C@@H]2CC[C@@H](Nc3ncc4c(Br)nn(-c5ccc6ncccc6c5)c4n3)C2)CCN1 (mixture of isomers) | > 7.60 |
